In patent publication US20210353585A1, “METHODS AND COMPOSITIONS FOR TREATING LAMINOPATHIES AFFECTING SKELETAL OR CARDIAC MUSCLE” (CORNELL UNIVERSITY, priority 2018, published 2021):

Experiments:
Lmna H222P mice = details: Macquart et al. 2018; cited from earlier work
Lmna KO myofibers [1] = test: Microharpoon assay of nuclear deformation; type: cell-based, mouse; details: Lmna KO myotubes, 50 nM paclitaxel for 24 hours vs DMSO
Experimental: For the microharpoon studies, myoblasts were seeded in 35 mm glass bottom dishes and differentiated as previously described, except without the addition of a Matrigel top coat to allow microharpoon access. A Sutter P-97 micropipette puller was used to create microharpoons from borosilicate glass rods (Sutter; OD: 1.0 mm, ID: 0.78, 10 cm length) with tip diameters of ≈1 μm. Day 4 myotubes (Lmna KO and wild-type) were treated for 24 hours with either 50 nM Paclitaxel or the corresponding 0.1% DMSO. The following day, the microharpoon assay was performed as described in Fedorchak et al., “Cell Microharpooning to Study Nucleo-Cytoskeletal Coupling,” Methods Mol. Biol. 1411:241-254 (2016), which is hereby incorproated by reference in its entirety, with slight modifications to the pull parameters to accommodate myotubes. The microharpoon was inserted ≈5-7 μm from the edge of the nucleus and pulled 15 μm at a rate of 1 μm/s. Pull direction was always orthogonal to the long axis of the myofiber. Images were acquired at 40× (+1.6×) every 5 seconds. Nuclear strain and centroid displacement were calculated using a custom-written MATLAB program. […]

Lmna KO myofibers [2] = test: Quantification of myonuclei with chromatin protrusions; type: cell-based, mouse; details: paclitaxel 50 nM starting day 4, read day 7, vs DMSO
Experimental: Pharmacological treatments. For preliminary experiments, myoblasts were differentiated using the standard protocol and treated with pharmacological treatments starting at day 5 of differentiation. For chromatin protrusion studies, paclitaxel was administered to differentiated myotubes in two 24 hours bursts at day 4 and day 6-post differentiation with a 24 hour recovery in between. Myotubes were then fixed in 4% PFA at day 7 and stained with anti-lamin B and DAPI in order to quantify the percentage of myonuclei with chromatin protrusions. For long term studies using the cGAS reporter, myotubes were treated with 10 nM of paclitaxel starting at day 5 and then media was refreshed every day. […]
Image analysis. Image sequences were analyzed using ZEN (Zeiss), ImageJ, or MATLAB (Mathworks) using only linear adjustments uniformly applied to the entire image region. […] To quantify cleaved caspase-3 (i.e. active) area and myofiber health, maximum intensity protections were generated, which were then blinded to the observer. Cleaved caspase-3 area was calculated by thresholding of the caspase-3 and myosin heavy chain fluorescent signal and expressing the cleaved caspase-3 signal relative to the myosin heavy chain signal. Myofiber contractions were scored based on a minimum of 6 random fields of view per replicate using a blinded analysis according to the scales provided in FIGS. 4A-4B. […]

Lmna KO myofibers [3] = test: Nuclear envelope rupture, cGAS-mCherry reporter foci; type: cell-based, mouse; details: paclitaxel 10 nM starting day 5, vs DMSO
Description: Each of the mutant myoblast lines were stably modified with lentiviral vectors to express the nuclear rupture reporter NLS-GFP (pCDH-CMV-NLS-copGFP-EF1-blastiS) and cGAS-mCherry (pCDH-CMV-eGAs^E225A/D227A-mCherry2-EF1-blastiS). cGAS is a cytosolic DNA binding protein; a cGAS mutant (E225A/D227A) with abolished enzyme activity and interferon production, but that still binds DNA (Civril et al., “Structural Mechanism of Cytosolic DNA Sensing by cGAS,” Nature 498:332-337 (2013), which is hereby incorporated by reference in its entirety) and serves as a nuclear envelope rupture reporter (Denais et al., “Nuclear Envelope Rupture and Repair During Cancer Cell Migration,” Science 352:353-358 (2016), which is hereby incorporated by reference in its entirety) was used.
Extended imaging using incubator microscope. […] Resulting images were analyzed using the Incucyte software, which performs fluorescence background subtraction using a top hat method and then subsequent thresholding. cGAS-mCherry cells were thresholded and then analyzed for increase in fluorescent foci over time to track the rate of increase in nuclear envelope rupture or damage. […]

chick cardiac tissue = details: Cho et al. 2019; cited from earlier work
Lmna WT myofibers [4] = test: Cell viability MTT assay, Lmna WT; type: cell-based, mouse; details: wild-type myofibers; phleomycin 20 μg/ml pulses combined with NU7441 (2 μM) and/or KU55933 (2 μM); comparable to untreated Lmna KO
Experimental: (§1) Pharmacological treatments. For preliminary experiments, myoblasts were differentiated using the standard protocol and treated with pharmacological treatments starting at day 5 of differentiation. For chromatin protrusion studies, paclitaxel was administered to differentiated myotubes in two 24 hours bursts at day 4 and day 6-post differentiation with a 24 hour recovery in between. Myotubes were then fixed in 4% PFA at day 7 and stained with anti-lamin B and DAPI in order to quantify the percentage of myonuclei with chromatin protrusions. For long term studies using the cGAS reporter, myotubes were treated with 10 nM of paclitaxel starting at day 5 and then media was refreshed every day. […] For DNA damage induction and inhibitor experiments, cells were treated with 20 μg/ml of phleomycin for a two-hour pulse on Day 3, 4, and 5 of differentiation. Concurrently, cells were treated with NU7441 (2 μM), KU55933 (2 μM) starting at day 2 of differentiation through day 10 of differentiation. For induction of DN-KASH and DN-KASHext, cells were treated with 1 μM doxycycline.
(§2) MTT assay. Myoblasts, seeded in a 96-well plate and differentiated as previously described for 0, 5, or 10 days, were assayed for cell viability according to the manufacturer's instructions (Promega, CellTiter 96 Non-Radioactive Cell Proliferation Assay). Fresh differentiation media was added two hours prior to the addition of 15 μL MTT 3-(4,5-dimethylthiazol-2-yl)-2,5-diphenyltetrazolium bromide dye. After incubation for 3 hours in MTT dye, 100 uL of Stop Solution was added to solubilize the formazan product (appears purple). Following overnight incubation at 37° C. and 5% CO2, the absorbance of each well (measured at 590 nm) was analyzed using a microplate reader.

Lmna WT myofibers [5] = test: DNA damage by γH2AX foci per nucleus, Lmna WT; type: cell-based, mouse; details: for DNA damage (γH2AX foci per nucleus): Lmna WT cells, phleomycin with DNA-PK+ATM inhibition vs phleomycin alone; for DNA damage (γH2AX foci): wild-type myofibers, phleomycin 20 μg/ml pulses combined with NU7441 (2 μM) and/or KU55933 (2 μM), comparable to untreated Lmna KO
Experimental: as §1
Immunofluorescence staining of mouse cells and tissues. Cells were fixed in pre-warmed 4% PFA at the appropriate time point(s) and washed with PBS. Cells were blocked and permeabilized with a solution of 3% BSA, 0.1% Triton-X 100 and 0.1% Tween (Sigma) for 1 hour at room temperature. Cells were stained with primary antibodies diluted in blocking solution according to Table 4 at 4° C. overnight. Samples were washed with PBS and incubated for 1 hour at room temperature with 1:250 dilution of AlexaFluor antibodies (Invitrogen) and 1:1000 DAPI (Sigma). Single muscle fibers were stained using the same procedure in Eppendorf tube baskets with an increase in blocking solution Triton-X concentration to 0.25%.
Image analysis. Image sequences were analyzed using ZEN (Zeiss), ImageJ, or MATLAB (Mathworks) using only linear adjustments uniformly applied to the entire image region. Region of interest intensities were extracted using ZEN or ImageJ. To quantify cleaved caspase-3 (i.e. active) area and myofiber health, maximum intensity protections were generated, which were then blinded to the observer. Cleaved caspase-3 area was calculated by thresholding of the caspase-3 and myosin heavy chain fluorescent signal and expressing the cleaved caspase-3 signal relative to the myosin heavy chain signal. Myofiber contractions were scored based on a minimum of 6 random fields of view per replicate using a blinded analysis according to the scales provided in FIGS. 4A-4B. […] Protrusions lengths were both counted and measured by the presence of DAPI signal beyond the lamin B rim of the nucleus. Aspect ratio was quantified based on a thresholded lamin B rim to avoid the confounding factor of the DNA protrusions outside the body of the nucleus. Nuclear rupture was detected by an increase of the cytoplasmic NLS-GFP signal, or the localization of cGAS-mCherry to the nucleus. For better visualization of NLS-GFP cells many of the fluorescent single color image sequences were inverted. […] DNA damage was determined by counting H2AX foci and then binned based on foci number. If damage was so severe that individual foci could not be counted, these nuclei were placed in the >25 foci category. For Hsp90 quantification, average nuclear Hsp90 fluorescence intensity was determined from a single mid-nucleus z-plane image and normalized to the cytoplasmic intensity at two points immediately adjacent to the nucleus.

Lmna KO myofibers [6] = test: Cell viability MTT assay, Lmna KO; type: cell-based, mouse; details: phleomycin alone or in combination with NU7441 and/or KU55933
Experimental: as §1, §2

CC(=O)O[C@H]1C(=O)[C@@]2(C)[C@H]([C@H](OC(=O)c3ccccc3)[C@]3(O)C[C@H](OC(=O)[C@H](O)[C@@H](NC(=O)c4ccccc4)c4ccccc4)C(C)=C1C3(C)C)[C@]1(OC(C)=O)CO[C@@H]1C[C@@H]2O [paclitaxel]
cardiac conduction defects (Lmna H222P mice): improve cardiac conduction defects | nuclear deformation in response to cytoplasmic force application (nuclear strain) (Lmna KO myofibers [1]): significantly reduced nuclear deformation | percentage of nuclei with chromatin protrusions (Lmna KO myofibers [2]): significantly reduced the percentage of nuclei with chromatin protrusions | incidence of nuclear envelope rupture (cGAS-mCherry foci) (Lmna KO myofibers [3]): significantly reduced

Cc1ccc2c(c1)C(=O)C1(O)CCN(c3ccccc3)C1=N2 (stereo not shown) [blebbistatin]
nuclear envelope rupture (chick cardiac tissue): rescued

O=c1cc(-c2cccc3c2Sc2ccccc2S3)oc(N2CCOCC2)c1 [KU55933]
myofiber viability (MTT) (Lmna WT myofibers [4]): loss of viability | DNA damage (γH2AX foci per nucleus) (Lmna WT myofibers [5]): significant increase in DNA damage | DNA damage (γH2AX foci) (Lmna WT myofibers [5]): accumulation of DNA damage | myofiber viability (MTT) (Lmna KO myofibers [6]): did not further reduce viability

phleomycin
myofiber viability (MTT) (Lmna WT myofibers [4]): loss of viability | DNA damage (γH2AX foci) (Lmna WT myofibers [5]): accumulation of DNA damage | myofiber viability (MTT) (Lmna KO myofibers [6]): did not further reduce viability

O=c1cc(N2CCOCC2)oc2c(-c3cccc4c3sc3ccccc34)cccc12 [NU7441]
myofiber viability (MTT) (Lmna WT myofibers [4]): loss of viability | DNA damage (γH2AX foci per nucleus) (Lmna WT myofibers [5]): significant increase in DNA damage | DNA damage (γH2AX foci) (Lmna WT myofibers [5]): accumulation of DNA damage | myofiber viability (MTT) (Lmna KO myofibers [6]): did not further reduce viability
